# Test results published in PubChem BioAssay (NCI).
#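 GI50 marks 50% less growth. TGI denotes the concentration required for complete inhibition of growth.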
# Legend:
# Assay in all cases: NCI-60 cell line screen, 384-well format
# OVCAR-3 ovarian = test system: OVCAR-3 ovarian
# LOX IMVI melanoma = test system: LOX IMVI melanoma
# DU-145 prostate = test system: DU-145 prostate
# HOP-92 NSCLC = test system: HOP-92 NSCLC
# RXF 393 renal = test system: RXF 393 renal
# SK-OV-3 ovarian = test system: SK-OV-3 ovarian
# SNB-75 CNS = test system: SNB-75 CNS
# T-47D breast = test system: T-47D breast
# MOLT-4 leukemia = test system: MOLT-4 leukemia
# MDA-MB-468 breast = test system: MDA-MB-468 breast
# HOP-62 NSCLC = test system: HOP-62 NSCLC
# SF-268 CNS = test system: SF-268 CNS
# KM12 colon = test system: KM12 colon
# HCT-15 colon = test system: HCT-15 colon
# NCI-H322M lung = test system: NCI-H322M lung
# HS 578T breast = test system: HS 578T breast
# COLO 205 colon = test system: COLO 205 colon
# NCI/ADR-RES ovarian = test system: NCI/ADR-RES ovarian
# A549 NSCLC = test system: A549 NSCLC
# MDA-MB-231 breast = test system: MDA-MB-231 breast
# ACHN renal = test system: ACHN renal
# EKVX NSCLC = test system: EKVX NSCLC
# M14 melanoma = test system: M14 melanoma
# NCI-H522 lung = test system: NCI-H522 lung
# MALME-3M melanoma = test system: MALME-3M melanoma
# OVCAR-8 ovarian = test system: OVCAR-8 ovarian
# PC-3 prostate = test system: PC-3 prostate
# RPMI-8226 leukemia = test system: RPMI-8226 leukemia
# NCI-H226 lung = test system: NCI-H226 lung
# CAKI-1 renal = test system: CAKI-1 renal
# TK-10 renal = test system: TK-10 renal
# IGROV1 ovarian = test system: IGROV1 ovarian
# SR leukemia = test system: SR leukemia
# MCF7 breast = test system: MCF7 breast
# SF-539 CNS = test system: SF-539 CNS
# NCI-H23 lung = test system: NCI-H23 lung
# A498 renal = test system: A498 renal
# HCT-116 colon = test system: HCT-116 colon
# SF-295 CNS = test system: SF-295 CNS
# BT-549 breast = test system: BT-549 breast
# HCC-2998 colon = test system: HCC-2998 colon
# HT29 colon = test system: HT29 colon
# SNB-19 CNS = test system: SNB-19 CNS
# OVCAR-5 ovarian = test system: OVCAR-5 ovarian
# SK-MEL-5 melanoma = test system: SK-MEL-5 melanoma
# SN12C renal = test system: SN12C renal
# SK-MEL-28 melanoma = test system: SK-MEL-28 melanoma
# UACC-257 melanoma = test system: UACC-257 melanoma
# HL-60(TB) leukemia = test system: HL-60(TB) leukemia
# U251 glioblastoma = test system: U251 glioblastoma
# OVCAR-4 ovarian = test system: OVCAR-4 ovarian
# NCI-H460 NSCLC = test system: NCI-H460 NSCLC
structure (smiles),measurement,setting,value
CNCCn1c(=O)c2cc(OC)c(OC)cc2c2cnc3cc4c(cc3c21)OCO4,GI50,OVCAR-3 ovarian,< 10 nM
same,TGI,OVCAR-3 ovarian,14.1 nM
same,GI50,LOX IMVI melanoma,< 10 nM
same,TGI,LOX IMVI melanoma,12 nM
same,GI50,DU-145 prostate,< 10 nM
same,TGI,DU-145 prostate,< 10 nM
same,GI50,HOP-92 NSCLC,14.1 nM
same,TGI,HOP-92 NSCLC,1330 nM
same,GI50,RXF 393 renal,13.7 nM
same,TGI,RXF 393 renal,43.1 nM
same,GI50,SK-OV-3 ovarian,< 10 nM
same,TGI,SK-OV-3 ovarian,17.7 nM
same,GI50,SNB-75 CNS,< 10 nM
same,TGI,SNB-75 CNS,23.3 nM
same,GI50,T-47D breast,< 10 nM
same,TGI,T-47D breast,242 nM
same,GI50,MOLT-4 leukemia,< 10 nM
same,TGI,MOLT-4 leukemia,< 10 nM
same,GI50,MDA-MB-468 breast,< 10 nM
same,TGI,MDA-MB-468 breast,< 10 nM
same,GI50,HOP-62 NSCLC,< 10 nM
same,TGI,HOP-62 NSCLC,< 10 nM
same,GI50,SF-268 CNS,< 10 nM
same,TGI,SF-268 CNS,17.2 nM
same,GI50,KM12 colon,10.8 nM
same,TGI,KM12 colon,43.2 nM
same,GI50,HCT-15 colon,< 10 nM
same,TGI,HCT-15 colon,25.8 nM
same,GI50,NCI-H322M lung,15.6 nM
same,TGI,NCI-H322M lung,41.1 nM
same,GI50,HS 578T breast,33.5 nM
same,TGI,HS 578T breast,1810 nM
same,GI50,COLO 205 colon,< 10 nM
same,TGI,COLO 205 colon,1330 nM
same,GI50,NCI/ADR-RES ovarian,< 10 nM
same,TGI,NCI/ADR-RES ovarian,42.9 nM
same,GI50,A549 NSCLC,< 10 nM
same,TGI,A549 NSCLC,1080 nM
same,GI50,MDA-MB-231 breast,35.8 nM
same,TGI,MDA-MB-231 breast,139 nM
same,GI50,ACHN renal,< 10 nM
same,TGI,ACHN renal,< 10 nM
same,GI50,EKVX NSCLC,21.9 nM
same,TGI,EKVX NSCLC,51.6 nM
same,GI50,M14 melanoma,< 10 nM
same,TGI,M14 melanoma,< 10 nM
same,GI50,NCI-H522 lung,< 10 nM
same,TGI,NCI-H522 lung,23.3 nM
same,GI50,MALME-3M melanoma,25.5 nM
same,TGI,MALME-3M melanoma,1810 nM
same,GI50,OVCAR-8 ovarian,< 10 nM
same,TGI,OVCAR-8 ovarian,33.8 nM
same,GI50,PC-3 prostate,22.1 nM
same,TGI,PC-3 prostate,1340 nM
same,GI50,RPMI-8226 leukemia,< 10 nM
same,TGI,RPMI-8226 leukemia,< 10 nM
same,GI50,NCI-H226 lung,12.7 nM
same,TGI,NCI-H226 lung,756 nM
same,GI50,CAKI-1 renal,< 10 nM
same,TGI,CAKI-1 renal,1490 nM
same,GI50,TK-10 renal,13.8 nM
same,TGI,TK-10 renal,58.4 nM
same,GI50,IGROV1 ovarian,15.8 nM
same,TGI,IGROV1 ovarian,66.7 nM
same,GI50,SR leukemia,< 10 nM
same,TGI,SR leukemia,< 10 nM
same,GI50,MCF7 breast,< 10 nM
same,TGI,MCF7 breast,158 nM
same,GI50,SF-539 CNS,< 10 nM
same,TGI,SF-539 CNS,12.3 nM
same,GI50,NCI-H23 lung,< 10 nM
same,TGI,NCI-H23 lung,16.2 nM
same,GI50,A498 renal,< 10 nM
same,TGI,A498 renal,20.9 nM
same,GI50,HCT-116 colon,< 10 nM
same,TGI,HCT-116 colon,19.2 nM
same,GI50,SF-295 CNS,< 10 nM
same,TGI,SF-295 CNS,< 10 nM
same,GI50,BT-549 breast,< 10 nM
same,TGI,BT-549 breast,20.4 nM
same,GI50,HCC-2998 colon,12.4 nM
same,TGI,HCC-2998 colon,32.4 nM
same,GI50,HT29 colon,< 10 nM
same,TGI,HT29 colon,20.5 nM
same,GI50,SNB-19 CNS,< 10 nM
same,TGI,SNB-19 CNS,14.1 nM
same,GI50,OVCAR-5 ovarian,10.6 nM
same,TGI,OVCAR-5 ovarian,29.1 nM
same,GI50,SK-MEL-5 melanoma,< 10 nM
same,TGI,SK-MEL-5 melanoma,14.8 nM
same,GI50,SN12C renal,< 10 nM
same,TGI,SN12C renal,< 10 nM
same,GI50,SK-MEL-28 melanoma,28.8 nM
same,TGI,SK-MEL-28 melanoma,1830 nM
same,GI50,UACC-257 melanoma,22.8 nM
same,TGI,UACC-257 melanoma,1310 nM
same,GI50,HL-60(TB) leukemia,< 10 nM
same,TGI,HL-60(TB) leukemia,< 10 nM
same,GI50,U251 glioblastoma,< 10 nM
same,TGI,U251 glioblastoma,12.3 nM
same,GI50,OVCAR-4 ovarian,21.7 nM
same,TGI,OVCAR-4 ovarian,42 nM
same,GI50,NCI-H460 NSCLC,< 10 nM
same,TGI,NCI-H460 NSCLC,< 10 nM
